From ChEMBL document CHEMBL4483862, “Open-source discovery of chemical leads for next-generation chemoprotective antimalarials” (2018) come the findings set out here.

SMILES strings stand for the structures. Some results are limits rather than exact numbers.

This test deals with Plasmodium berghei. The test is described as follows: Luciferase/luciferin-expressing antifolate-resistant parasites were used to infect a culture of HepG2 cells that were pre-incubated with compounds. Infected hepatocytes emit light due to the luciferase reaction. Assay results are presented as the percent inhibition of light emission compared to control. […]. The format is functional. The note with it: sporozoite; for IC90: read-out: LUCIFERASE INFECTION ASSAY - IC90.

Setting [1] is: read-out: LUCIFERASE INFECTION ASSAY - IC50.

Broadly, the IC50 is the concentration that inhibits the measured activity by half. By IC90 is commonly meant the concentration at which the effect reaches the 90% level. Take `O=C(Nc1nc2ccccc2n1C1CCCCC1)c1ccoc1`: the IC90 was found to be 4.66 µM. Moreover, the IC50 (HEPG2TOX_HILL_SLOPE 1.84, HEPG2TOX_R_SQUARED 0.834, PBLUC_HILL_SLOPE 10.1, PBLUC_R_SQUARED 0.2, read-out: LUCIFERASE INFECTION ASSAY - IC50) was 3.75 µM.
Regarding `CC(=O)c1cccc(-c2cnc3ccc(-c4cccc(C(=O)NCCO)c4)nn23)c1`, the IC90 was found to be 2.32 µM. For the same molecule, the IC50 (HEPG2TOX_HILL_SLOPE 1.87, HEPG2TOX_R_SQUARED 0.674, PBLUC_HILL_SLOPE 4.19, PBLUC_R_SQUARED 0.651, read-out: LUCIFERASE INFECTION ASSAY - IC50) was determined as 1.38 µM.
`S=C(NCc1ccc(Cl)c(Cl)c1)Nc1cccnc1`: the IC90 was more than 10.6 µM. Also, the IC50 under setting [1] is more than 10.6 µM.
On to `CCn1c(NC(=O)Cc2c(Cl)cccc2Cl)nc2ccccc21`, for which the IC90 came to 6.27 µM. Where the note is “PBLUC_HILL_SLOPE 118, PBLUC_R_SQUARED 0.0721, read-out: LUCIFERASE INFECTION ASSAY - IC50”, the IC50 came out at 6.16 µM.
For the molecule `N#Cc1ccc(NC(=O)Nc2ccc(C#N)cc2)cc1`, the IC90 is 4.08 µM. Besides, the IC50 under setting [1] stood at 3.52 µM.
As to `Cc1n[nH]c(Nc2cc(Cl)cc(Cl)c2)nc1=O`, the IC90 is more than 12.2 µM. Moreover, the IC50 under setting [1] was more than 12.2 µM.
As to `CC(=O)Nc1ccc(-c2ccnc3c2CC(C(=O)Nc2cccc(C(F)(F)F)c2)O3)cc1` (stereo not given), the IC90 was more than 7.48 µM. Besides, under setting [1], the IC50 was 4.23 µM.
In the case of `O=c1c(NNc2cccc(C(F)(F)F)c2)c(CSc2ccc(Cl)cc2)[nH]n1-c1ccccc1`, the IC90 was more than 6.72 µM. Under setting [1], the IC50 is more than 6.72 µM.
As for `Cc1nn(CC(=O)N2c3ccccc3NC(=O)CC2C)c(=O)c(C#N)c1C` (stereo not given), the IC90 is more than 2 µM. Further, the IC50 under setting [1] is more than 2 µM.
Take `COc1ccc(-c2csc3ncnc(NC(C)c4ccc(Cl)cc4Cl)c23)cc1` (stereo not given): the IC90 was more than 10 µM. The IC50 under setting [1] was more than 10 µM.
Turning to `COc1ccc(-c2cnc3sc(NCCc4ccncc4)nn23)cc1OC`, the IC90 stood at 8.35 µM. Further, the IC50 (HEPG2TOX_HILL_SLOPE 4.06, HEPG2TOX_R_SQUARED 0.383, PBLUC_HILL_SLOPE 12.9, PBLUC_R_SQUARED 0.15, read-out: LUCIFERASE INFECTION ASSAY - IC50) was determined as 7.04 µM.
With `COc1ccc(/C=C2\CCCC3C2=NN(C(=O)Cn2cc(C(F)(F)F)ccc2=O)C3c2ccc(OC)cc2)cc1` (stereo not given), the IC90 turned out to be 8.1 µM. Also, the IC50 (PBLUC_HILL_SLOPE 4.26, PBLUC_R_SQUARED 0.126, read-out: LUCIFERASE INFECTION ASSAY - IC50) turned out to be 4.84 µM.
`Cc1cc(C)c2c(c1)C(=O)/C(=C/c1ccc(N(C)CCC#N)cc1)CC2`: the IC90 is more than 10 µM. Also, under setting [1], the IC50 was more than 10 µM.
For the molecule `Cc1nc2ccccn2c1C(=O)NCc1cccc(OC(F)(F)F)c1`, the IC90 was more than 9.45 µM. The IC50 (PBLUC_HILL_SLOPE 18.2, PBLUC_R_SQUARED 0.0314, read-out: LUCIFERASE INFECTION ASSAY - IC50) worked out at 8.72 µM.
Consider `CCc1ccc(C2=NN=C(Nc3cccc(S(=O)(=O)N(C)C)c3)SC2)cc1`, for which the IC90 was determined as 9.95 µM. Also, for the setting “FFLUC_HILL_SLOPE 1.2, FFLUC_R_SQUARED 0.399, HEPG2TOX_HILL_SLOPE 10.6, HEPG2TOX_R_SQUARED 0.97, PBLUC_HILL_SLOPE 5.57, PBLUC_R_SQUARED 0.702, read-out: LUCIFERASE INFECTION ASSAY - IC50”, the IC50 turned out to be 6.71 µM.
Consider `CC(C)(C)CC(=O)Nc1ccc2nc(-c3cccs3)nn2c1`, for which the IC90 is more than 10 µM. The IC50 (PBLUC_HILL_SLOPE 0.64, PBLUC_R_SQUARED 0.361, read-out: LUCIFERASE INFECTION ASSAY - IC50) is 2.36 µM.
On to `Cn1ccnc1Sc1cnc(SCC(=O)c2ccc(Cl)cc2)nc1-c1ccccc1`, for which the IC90 was more than 7.28 µM. In addition, the IC50 under setting [1] is more than 7.28 µM.
`COc1c(Cl)cc(C(=O)Nc2nonc2-c2ccc(F)cc2)cc1Cl`: the IC90 came out at 2.81 µM. Also, the IC50 (HEPG2TOX_HILL_SLOPE 3.32, HEPG2TOX_R_SQUARED 0.957, PBLUC_HILL_SLOPE 18.3, PBLUC_R_SQUARED 0.283, read-out: LUCIFERASE INFECTION ASSAY - IC50) is 2.49 µM.
Turning to `COc1ccc(CC(=O)N2CCN(C)c3nc4ccccc4nc32)cc1F`, the IC90 came out at 9.57 µM. For the same molecule, the IC50 (HEPG2TOX_HILL_SLOPE 1.64, HEPG2TOX_R_SQUARED 0.943, PBLUC_HILL_SLOPE 1.87, PBLUC_R_SQUARED 0.437, read-out: LUCIFERASE INFECTION ASSAY - IC50) is 2.96 µM.
In the case of `COc1ccc(-c2cnc3cnc(-c4cccc(NC(C)=O)c4)cn23)cc1`, the IC90 was more than 9.21 µM. Further, where the note is “PBLUC_HILL_SLOPE 2.77, PBLUC_R_SQUARED 0.737, read-out: LUCIFERASE INFECTION ASSAY - IC50”, the IC50 stood at 4.22 µM.
For the molecule `Cc1ccccc1-c1cccc(CN2CCC3(CC2)C(=O)N(CCCc2ccncc2)C(=O)N3C)c1`, the IC90 was 2.53 µM. Moreover, the IC50 (HEPG2TOX_HILL_SLOPE 0.98, HEPG2TOX_R_SQUARED 0.922, PBLUC_HILL_SLOPE 14, PBLUC_R_SQUARED 0.565, read-out: LUCIFERASE INFECTION ASSAY - IC50) came to 2.16 µM.
Take `CCOC(=O)c1c(C)[nH]c(C(=O)OCC(=O)NC23CC4CC(CC(C4)C2)C3)c1C`: the IC90 is more than 10 µM. Moreover, the IC50 under setting [1] was more than 10 µM.
As for `CCOC(=O)c1cc(C#N)c(Sc2n[nH]c(=O)n2Cc2ccc(C(F)(F)F)cc2)nc1C`, the IC90 was more than 7.12 µM. In addition, the IC50 (FFLUC_HILL_SLOPE 26.6, FFLUC_R_SQUARED 0.376, read-out: LUCIFERASE INFECTION ASSAY - IC50) is more than 7.12 µM.
With `Cc1c(C)n(CCCO)c2ncn3nc(-c4ccc(F)cc4)nc3c12`, the IC90 amounted to 5.99 µM. In addition, under “FFLUC_HILL_SLOPE 1.57, FFLUC_R_SQUARED 0.582, PBLUC_HILL_SLOPE 0.753, PBLUC_R_SQUARED 0.936, read-out: LUCIFERASE INFECTION ASSAY - IC50”, the IC50 is 0.324 µM.
In the case of `Cn1cc(-c2cnc3cnc(-c4ccccc4Oc4ccccc4)cn23)cn1`, the IC90 amounted to 3.5 µM. The IC50 (PBLUC_HILL_SLOPE 18.2, PBLUC_R_SQUARED 0.499, read-out: LUCIFERASE INFECTION ASSAY - IC50) is 3.1 µM.
As for `N#Cc1ccsc1NC(=O)CCN1CCN(Cc2c(F)cccc2Cl)CC1`, the IC90 is more than 10 µM. Moreover, under setting [1], the IC50 was more than 10 µM.
Consider `CSc1nc2c(c(=O)n(C)c(=O)n2C)n1Cc1cccc(C(F)(F)F)c1`, for which the IC90 was more than 8.59 µM. In addition, the IC50 (HEPG2TOX_HILL_SLOPE 6.71, HEPG2TOX_R_SQUARED 0.561, read-out: LUCIFERASE INFECTION ASSAY - IC50) was more than 8.59 µM.
For the molecule `CC(C)C(N)c1csc(NC(=O)c2cc(C(C)(C)C)nn2Cc2ccccc2)n1` (stereo not given), the IC90 was found to be 3.46 µM. Further, the IC50 (PBLUC_HILL_SLOPE 594, PBLUC_R_SQUARED 0.291, read-out: LUCIFERASE INFECTION ASSAY - IC50) was 3.45 µM.
For `COc1ccc2nc(C)cc(N3CCc4c(sc(N)c4C#N)C3)c2c1`, the 90% effect concentration (IC90) was more than 10 µM. Moreover, under setting [1], the IC50 was more than 10 µM.
As to `CC(=O)c1cccc(-c2cc3c(cn2)nc(NCc2ccccc2F)n3C)c1`, the IC90 is more than 10 µM. Moreover, under “HEPG2TOX_HILL_SLOPE 11.4, HEPG2TOX_R_SQUARED 0.658, PBLUC_HILL_SLOPE 2.4, PBLUC_R_SQUARED 0.114, read-out: LUCIFERASE INFECTION ASSAY - IC50”, the IC50 worked out at 6.65 µM.
As to `CCN1C(=O)N(CCN(C)C)C(=O)C12CCN(Cc1ccc3c(c1)c1ccccc1n3CC)CC2`, the IC90 is 6.84 µM. For the same molecule, the IC50 (PBLUC_HILL_SLOPE 12.4, PBLUC_R_SQUARED 0.445, read-out: LUCIFERASE INFECTION ASSAY - IC50) is 5.73 µM.
Take `O=C(Nc1ccc(Cl)c(S(=O)(=O)N2CCCC2)c1)c1[nH]nc2ccccc12`: the IC90 was more than 10 µM. In addition, the IC50 (HEPG2TOX_HILL_SLOPE 0.202, HEPG2TOX_R_SQUARED 0.183, PBLUC_HILL_SLOPE 12.1, PBLUC_R_SQUARED 0.78, read-out: LUCIFERASE INFECTION ASSAY - IC50) turned out to be 9.03 µM.
On to `CCc1cccc2c(C(=O)COC(=O)c3ccc(S(C)(=O)=O)c([N+](=O)[O-])c3)c[nH]c12`, for which the concentration for an effect of 90% (IC90) came out at 6.57 µM. The IC50 (FFLUC_HILL_SLOPE 0.275, FFLUC_R_SQUARED 0.382, HEPG2TOX_HILL_SLOPE 0.775, HEPG2TOX_R_SQUARED 0.837, PBLUC_HILL_SLOPE 46.1, PBLUC_R_SQUARED 0.262, read-out: LUCIFERASE INFECTION ASSAY - IC50) came out at 6.27 µM.
As for `O=C(NCc1ccccn1)c1ccc2nc3n(c2c1)CCC3`, the IC90 was more than 10 µM. The IC50 under setting [1] is more than 10 µM.
With `O=C(CSc1nnc(Cc2cccs2)n1C1CCCCC1)c1c[nH]c2ccccc12`, the IC90 is more than 10 µM. Moreover, the IC50 under setting [1] is more than 10 µM.
Regarding `N#CC1C(=N)Oc2c3c(c4ccccc4c2C1c1ccc(F)cc1)C(c1ccc(F)cc1)C(C#N)C(=N)O3` (stereo not given), the 90% effect concentration (IC90) was more than 6.54 µM. The 50% inhibitory concentration (IC50) (FFLUC_HILL_SLOPE 11.1, FFLUC_R_SQUARED 0.748, PBLUC_HILL_SLOPE 2.09, PBLUC_R_SQUARED 0.0277, read-out: LUCIFERASE INFECTION ASSAY - IC50) is 4.45 µM.
In the case of `COC(=O)c1c(C)nn(C(=O)c2ccc(Cl)cc2)c1-c1snnc1C`, the IC90 is more than 8.76 µM. Also, under setting [1], the IC50 is more than 8.76 µM.
As for `OCCCNc1nc(-c2ccccc2)nc2sc(-c3ccccc3)cc12`, the IC90 is more than 10 µM. For the same molecule, under setting [1], the IC50 is more than 10 µM.
With `Cc1cc(C)cc(NC(=O)C(Sc2nc(=O)cc(N)[nH]2)c2ccccc2)c1` (stereo not given), the IC90 is more than 10 µM. Under setting [1], the IC50 was more than 10 µM.
As for `Cc1cc(C(=O)COC(=O)c2ccccc2OCC(=O)Nc2cccc(C(F)(F)F)c2)c(C)n1CC1CCCO1` (stereo not given), the IC90 was more than 10 µM. The IC50 under setting [1] is more than 10 µM.
